Results as given in PMC5974403, “The novel histone de acetylase 6 inhibitor, MPT0G211, ameliorates tau phosphorylation and cognitive deficits in an Alzheimer’s disease model” (Cell Death & Disease, 2018).
Entries after “also recorded” stand apart in the source; their conditions may differ.

Columns and labels:
[1] = test system: SH-SY5Y cells; assay: Western blot of acetyl-α-tubulin and acetyl-histone, SH-SY5Y cells; type: cell-based, human; settings: 0.1 to 1 μM, 24 h
Experimental: Cell viabilities were determined by MTT assay. The results represent the mean ± SEM of three independent experiments; *p < 0.05, **p < 0.01 and ***p < 0.001 compared with controls TEXT PRINTED IN THE PICTURE: (A) no label printed: M.W. 293.32
(§1) Cells (1 × 10^6) were incubated for 10 min at 4 °C in lysis buffer (20 mM HEPES, pH 7.4, 2 mM EGTA, 50 mM β-glycerophosphate, 0.1% Triton X-100, 10% glycerol, 1 mM dithiothreitol, 1 μg/mL leupeptin, 5 μg/mL aprotinin, 1 mM phenylmethylsulfonyl fluoride, and 1 mM sodium orthovanadate), scraped from the plate, incubated on ice for 10 min, and centrifuged at 17,000 × g for 30 min at 4 °C. Protein samples (30 μg) were electrophoresed through sodium dodecyl sulfate-polyacrylamide gels (SDS-PAGE) and transferred onto a nitrocellulose membrane, which was then blocked by incubation for 30 min at room temperature with 5% fat-free milk in PBS. Immunoblotting was performed by overnight incubation at 4 °C with primary antibodies in PBS, followed by incubation for 1 h at room temperature with HRP-conjugated secondary antibodies. Bound antibodies were measured using ECL reagent (T-Pro Biotechnology, New Taipei City, Taiwan), and the membrane was placed on a photographic film. Cell lysates (30 μg) were incubated with antibodies (1 μg each) and protein A/G agarose beads overnight at 4 °C. The precipitated beads were washed three times with 1 mL of ice-cold cell lysis buffer, and bound immune complexes were separated using 8% SDS-PAGE, followed by immunoblotting using the indicated primary antibody.

[2] = test system: SH-SY5Y cells; assay: Aβ1–40-induced tau phosphorylation, western blot; type: cell-based, human; settings: Aβ1–40 10 μM 24 h, then 0.1 μM for 24 h
Experimental: (§2) Cell lysates were prepared for western blot analysis of the indicated proteins. Results are presented as the mean ± SEM. *p < 0.05, **p < 0.01, and ***p < 0.001 compared with the control group; ^#p < 0.05, ^##p < 0.01, ^###p < 0.001 compared with the indicated groups
as §1, with “The precipitated beads were washed three times with 1 mL of ice-cold cell lysis buffer, and bound immune complexes were separated using 8% SDS-PAGE, followed by immunoblotting using the indicated primary antibody.” left out

[3] = test system: Neuro-2a cells; assay: Immunoprecipitation/immunoblot of HDAC6, acetyl-lysine, ubiquitin in transfected Neuro-2a cells; type: cell-based, mouse; settings: Neuro-2a transfected, 24 h
Experimental: Fig. 4 MPT0G211 increased the ubiquitination of p-tau and degradation by proteasome. a, b SH-SY5Y and Neuro-2a cells were transfected for 24 h with pCAX APP 695 and pRK5-EGFP-Tau P301L and incubated with MPT0G211 or ACY-1215 (0.1 μM) for another 24 h, after which the cell lysates were immunoprecipitated with antibodies against HDAC6, acetyl-lysine (a) or ubiquitin (b) and were subjected to immunoblotting. c Cells were transfected with pCAX APP 695 and pRK5-EGFP-Tau P301L for 24 h and were then incubated with MPT0G211 (0.01–1 μM) for another 24 h. Immunoblots reveal polyubiquitin complexes. d pCAX APP 695 or pRK5-EGFP-Tau P301L were used to transfect the cells for 24 h, incubated with or without MG132 (1 μM) for 30 min, and were then treated with MPT0G211 or ACY-1215 (0.1 μM) for another 24 h. Cell lysates were prepared for western blot analysis of the indicated proteins
as §1

[4] = test system: 3×Tg-AD mice; assay: Morris water maze in 3×Tg-AD mice; type: in vivo, mouse; settings: 50 mg/kg oral daily for 3 months
Experimental: Red arrowheads indicate phosphorylated-tau proteins. Scale bar = 25 μm. Data represent the mean ± SEM. *p < 0.05, **p < 0.01, and ***p < 0.001 compared with the basal or control group; ^#p < 0.05, ^##p < 0.01, and ^###p < 0.001 compared with the vehicle-treated group
Six-month-old female B6;129-Psen1^tm1Mpm Tg(APPSwe,tauP301L)1Lfa/Mmjax (3xTg-AD) mice and control B6129SF2/J mice were obtained from the Jackson Laboratory (Bar Harbor, ME, USA), orally administered MPT0G211 (50 mg/kg) or memantine (30 mg/kg, dissolved in water) once daily for 3 months, and then subjected to Morris water maze. The assay that using 3xTg-AD mice was entrusted to carry out by Development Center for Biotechnology (New Taipei City, Taiwan).
The water maze was constructed as a white circular pool filled with water, and the water temperature was maintained at 23–27 °C. A white platform was established and submerged 5 cm below the surface of the water and styrofoam beads were added to make the platform invisible. Animals were trained by permitting them to stay for 10 s upon reaching the platform. […] Training was performed twice daily and 4 days during 1 week. Test trials were repeated twice with a 20 min interval for each animal. Scopolamine (1 mg/kg) was injected intraperitoneally 90 min before the test trial to induce AD-like features, except for the control group.

[5] = test system: SH-SY5Y cells; assay: Western blot of tau phosphorylation and kinases in SH-SY5Y cells transfected with pCAX APP 695 and pRK5-EGFP-Tau P301L; type: cell-based, human; settings: 0.1 μM, 24 h
Experimental: Images represented magnification at ×100. b Cells were transfected with pCAX APP 695 for 24 h, harvested, and cell lysates were subjected to Western blotting. c, d SH-SY5Y and Neuro-2a cells were transfected with pCAX APP 695 and/or pRK5-EGFP-Tau P301L for 24 h. Cell lysates were prepared for western blot analysis of the indicated proteins. e, f Cells were transfected with pCAX APP 695 and pRK5-EGFP-Tau P301L for 24 h and were then incubated with or without MPT0G211 or ACY-1215 (0.1 μM) for another 24 h. Cell lysates were subjected to western blot analysis using the indicated antibodies. Results are presented as the mean ± SEM from three independent experiments. **p < 0.01, ***p < 0.001 compared with the control group; ^#p < 0.05, ^##p < 0.01 compared with the indicated groups
as §2
Cells were seeded 1 day before transfection. The plasmids pCAX FLAG APP and pRK5-EGFP-Tau P301L (1 μg each) and 1 μL of TurboFect transfection reagent were mixed for 20 min at room temperature, added to the cells, and the suspensions were incubated for 24 h at 37 °C in a humidified atmosphere containing 5% CO2.
as §1

O=C(NO)c1ccc(CNc2cccc3cccnc23)cc1 [MPT0G211, N-hydroxy-4-((quinolin-8-ylamino)methyl)benzamide]
acetylation of histones [1]: without affecting the acetylation of histones
acetylation of α-tubulin [1]: concentration-dependently increased
GSK3β activity and Aβ1–40-induced tau phosphorylation [2]: diminished
coimmunoprecipitation of ubiquitin with p-tau (Ser396) ([3]; 0.1 μM): clearly increased
HDAC6/Hsp90 binding ([3]; 0.1 μM, IP): downregulation
acetylation of Hsp90 ([3]; 0.1 μM, IP): clearly enhanced
level of polyubiquitinated proteins ([3]; 0.01–1 μM): significantly accumulated
memory impairment (Morris water maze escape latency) [4]: significantly ameliorated
phosphorylation of tau Ser396 ([5]; SH-SY5Y transfected hAPP 695 + hTau P301L): significantly inhibited; also recorded: significantly attenuated
CDK5, p25, or p35 expression ([5]; SH-SY5Y transfected): no marked changes
phospho-GSK3β on Ser9 ([5]; SH-SY5Y transfected): significant phospho-GSK3β increases
phospho-GSK3β on Ser216 ([5]; SH-SY5Y transfected): a decrease
phosphorylation of tau Ser404 ([5]; SH-SY5Y transfected): significantly attenuated
